# In US9359308B2, “Pyrazine kinase inhibitors” (Portola Pharmaceuticals, Inc., priority 2011, dated 2016):
# Molecular target: T1, full length active recombinant SYK enzyme (Homo sapiens, UniProt P43405)
# T1 construct: full length active recombinant SYK enzyme (Millipore, Calif.); purchased Millipore
# Test: Inhibition of Syk tyrosine phosphorylation activity (LANCE TR-FRET kinase assay)
# Format: biochemical
# Settings: activity in the Syk assays, class symbols
# From the text: The in vitro and in vivo human Syk activities of the inventive compounds can be determined by various procedures known in the art, such as a test for their ability to inhibit the activity of human plasma Syk. […] The IC50 value is the concentration (in nM) of the compound required to provide 50% inhibition of human Syk proteolytic activity.
# An in vitro assay for detecting and measuring inhibition activity against Syk is as follows:
# Inhibition of Syk Tyrosine Phosphorylation Activity
# Potency of candidate molecules for inhibiting Syk tyrosine phosphorylation activity is assessed by measuring the ability of a test compound to inhibit Syk-mediated tyrosine phosphorylation of a Syk-specific substrate.
# SYK tyrosine phosphorylation activity is measured using the LANCE™ Technology developed by Perkin Elmer Life and Analytical Sciences (Boston, Mass.). LANCE™ refers to homogeneous time resolved fluorometry applications using techniques such as time-resolved fluorescence resonance energy transfer assay (TR-FRET) (see generally for procedures in Perkin Elmer Application Note-How to Optimize a Tyrosine Kinase Assay Using Time Resolved Fluorescence-Based LANCE Detection, wwww.perkinelmer.com/lifesciences). The assay principle involves detection of a phosphorylated substrate using energy transfer from a phosphospecific europium-labeled antibody to streptavidin-allophycocyanin as an acceptor.
# To test the ability of candidate molecules to inhibit SYK tyrosine phosphorylation activity, molecules are reconstituted in 30% DMSO and serially diluted 1:3 with the final dilution containing DMSO in the absence of the candidate molecule. The final DMSO concentration in the assay is 3%. Kinase assays are performed as a two part reaction. The first reaction is a kinase reaction and which comprises of a candidate molecule, full length active recombinant SYK enzyme (Millipore, Calif.) and biotin-labeled SYK-specific substrate biotin-DEEDYESP-OH. The second reaction involves termination of the kinase reaction and the simultaneous addition of the detection reagents-europium-labeled anti-phosphotyrosine reagent (Eu-W1024-PY100, Perkin Elmer, Boston, Mass.) and Streptavidin-Allophycocyanin detection reagent (SA-APC, Prozyme, CA). The kinase reaction is performed in a black U-bottom 96-well microtitre plate. The final reaction volume is 50 μL and contains a final concentration of 1 nM active SYK enzyme, 550 nM SYK-substrate, and 100 μM ATP diluted in a buffer containing 50 mM Tris pH 7.5, 5 mM MgCl2, and 1 mM DTT. The reaction is allowed to proceed for 1 hour at room temperature. The quench buffer contains 100 mM Tris pH 7.5, 300 mM NaCl2, 20 mM EDTA, 0.02% Brij35, and 0.5% BSA. The detection reagents are added to the reaction mixture at the following dilutions-1:500 for Eu-W1024-PY100 and 1:250 for SA-APC. The kinase reaction is terminated by the addition of 50 μL quench buffer containing the detection reagents. The detection is allowed to proceed for 1 hr at room temperature. Detection of the phosphorlated substrate in the absence and presence of inhibitors is measured in the TR-FRET instrument, Analyst HT (Molecular Probes, Sunnyvale, Calif.) and the condition for measurements are set up using CriterionHost Release 2.0 (Molecular Probes, Sunnyvale, Calif.). The settings used are a follows: excitation 360 nm, emission 665-7.5 nm, beam splitter 350 nm 50/50, flash 100 pulses, delay 60 us, integration 400 us, z-height 2 mm. Inhibition of SYK-tyrosine kinase activity is calculated as the maximum response observed in the presence of inhibitor, compared to that in the absence of inhibitor. IC50s were derived by non-linear regression analysis.
row,IC50 [nM],Compound
1,1 to 10,"CC(C)C[C@@H](Nc1cnc(C(N)=O)c(Nc2cnc3ccccc3c2)n1)C(N)=O [Example 1, (R)-5-(1-amino-4-methyl-1-oxopentan-2-ylamino)-3-(quinolin-3-ylamino)pyrazine-2-carboxamide]"
2,1 to 10,"CC(C)C[C@@H](Nc1cnc(C(N)=O)c(Nc2ccc3ncccc3c2)n1)C(N)=O [Example 2, (R)-5-(1-amino-4-methyl-1-oxopentan-2-ylamino)-3-(quinolin-6-ylamino)pyrazine-2-carboxamide]"
3,1 to 10,"CC(C)C[C@@H](Nc1cnc(C(N)=O)c(Nc2cccc3c2ccn3C)n1)C(N)=O [Example 3, (R)-5-(1-amino-4-methyl-1-oxopentan-2-ylamino)-3-(1-methyl-1H-indol-4-ylamino)pyrazine-2-carboxamide]"
4,1 to 10,"C[C@@H](Nc1cnc(C(N)=O)c(Nc2ccc3ncccc3c2)n1)C(N)=O [Example 4, (R)-5-(1-amino-1-oxopropan-2-ylamino)-3-(quinolin-6-ylamino)pyrazine-2-carboxamide]"
5,1 to 10,"C[C@@H](Nc1cnc(C(N)=O)c(Nc2cnc3ccccc3c2)n1)C(N)=O [Example 5, (R)-5-(1-amino-1-oxopropan-2-ylamino)-3-(quinolin-3-ylamino)pyrazine-2-carboxamide]"
6,1 to 10,"NC(=O)c1ncc(NC(CC(F)(F)F)C(N)=O)nc1Nc1ccc2ncccc2c1 (stereo not drawn) [Example 6, 5-(1-amino-4,4,4-trifluoro-1-oxobutan-2-ylamino)-3-(quinolin-6-ylamino)pyrazine-2-carboxamide]"
7,1 to 10,"NC(=O)c1ncc(N[C@H](CC2CC2)C(N)=O)nc1Nc1cnc2ccccc2c1 [Example 7, (R)-5-(1-amino-3-cyclopropyl-1-oxopropan-2-ylamino)-3-(quinolin-3-ylamino)pyrazine-2-carboxamide]"
8,1 to 10,"NC(=O)c1ncc(N[C@H](CC2CC2)C(N)=O)nc1Nc1ccc2ncccc2c1 [Example 8, (R)-5-(1-amino-3-cyclopropyl-1-oxopropan-2-ylamino)-3-(quinolin-6-ylamino)pyrazine-2-carboxamide]"
9,1 to 10,"NC(=O)c1ncc(N[C@H](CC2CC2)C(N)=O)nc1Nc1csc2ncccc12 [Example 9, (R)-5-(1-amino-3-cyclopropyl-1-oxopropan-2-ylamino)-3-(thieno[2,3-b]pyridin-3-ylamino)pyrazine-2-carboxamide]"
10,1 to 10,"NC(=O)c1ncc(N[C@@H]2CCCC(F)(F)[C@@H]2N)nc1Nc1ccc2ncccc2c1 [Example 14, 5-((1R,2R)-2-amino-3,3-difluorocyclohexylamino)-3-(quinolin-6-ylamino)pyrazine-2-carboxamide]"
11,1 to 10,"CC(C)C[C@@H](Nc1cnc(C(N)=O)c(Nc2ccc(C(N)=O)cc2)n1)C(N)=O [Example 20, (R)-5-(1-amino-4-methyl-1-oxopentan-2-ylamino)-3-(4-carbamoylphenylamino)pyrazine-2-carboxamide]"
12,1 to 10,"CC(C)C[C@@H](Nc1cnc(C(N)=O)c(Nc2ccc(-c3ccno3)cc2)n1)C(N)=O [Example 21, (R)-5-(1-amino-4-methyl-1-oxopentan-2-ylamino)-3-(4-(isoxazol-5-yl)phenylamino)pyrazine-2-carboxamide]"
13,1 to 10,"Cc1cc(Nc2nc(N[C@H](CC(C)C)C(N)=O)cnc2C(N)=O)sn1 [Example 22, (R)-5-(1-amino-4-methyl-1-oxopentan-2-ylamino)-3-(3-methylisothiazol-5-ylamino)pyrazine-2-carboxamide]"

# Further lines, the compound ahead of its results:
row,Compound,IC50 [nM]
1,"NC(=O)c1ncc(N[C@@H]2CCCC[C@@H]2N)nc1Nc1ccc2[nH]ncc2c1 (racemic) [Example 54, cis-3-(1H-indazol-5-ylamino)-5-(2-aminocyclohexylamino)pyrazine-2-carboxamide]",< 1
2,"NC(=O)c1ncc(N[C@@H]2CCCC[C@@H]2N)nc1Nc1cccc(-n2nccn2)c1 [Example 10, 3-(3-(2H-1,2,3-triazol-2-yl)phenylamino)-5-((1R,2S)-2-aminocyclohexylamino)pyrazine-2-carboxamide]",1 to 10
3,"Cn1ccc2c(Nc3nc(N[C@@H]4CCCC[C@@H]4N)cnc3C(N)=O)cccc21 [Example 11, 5-((1R,2S)-2-aminocyclohexylamino)-3-(1-methyl-1H-indol-4-ylamino)pyrazine-2-carboxamide]",1 to 10
4,"NC(=O)c1ncc(N[C@@H]2CCCC[C@@H]2N)nc1Nc1cccc(-c2ncccn2)c1 [Example 12, 5-((1R,2S)-2-aminocyclohexylamino)-3-(3-(pyrimidin-2-yl)phenylamino)pyrazine-2-carboxamide]",1 to 10
5,"NC(=O)c1ccc(Nc2nc(N[C@@H]3CCCC[C@@H]3N)cnc2C(N)=O)cc1 [Example 13, 5-((1R,2S)-2-aminocyclohexylamino)-3-(4-carbamoylphenylamino)pyrazine-2-carboxamide]",1 to 10
6,"NC(=O)c1ncc(N[C@@H]2CCCC(F)(F)[C@@H]2N)nc1Nc1cccc(-n2nccn2)c1 [Example 15, 3-(3-(2H-1,2,3-triazol-2-yl)phenylamino)-5-((1R,2R)-2-amino-3,3-difluorocyclohexylamino)pyrazine-2-carboxamide]",10 to 100
7,"NC(=O)c1ncc(N[C@@H]2CCCC(F)(F)[C@@H]2N)nc1Nc1cccc(-c2ncccn2)c1 [Example 16, 5-((1R,2R)-2-amino-3,3-difluorocyclohexylamino)-3-(3-(pyrimidin-2-yl)phenylamino)pyrazine-2-carboxamide]",100 to 1000
8,"NC(=O)c1ncc(N[C@@H]2CCCC(F)(F)[C@@H]2N)nc1Nc1ccccc1 [Example 17, 5-((1R,2R)-2-amino-3,3-difluorocyclohexylamino)-3-(phenylamino)pyrazine-2-carboxamide]",10 to 100
9,"NC(=O)c1ncc(N[C@@H]2CCCC(F)(F)[C@@H]2N)nc1Nc1ccc(-c2ccno2)cc1 [Example 18, 5-((1R,2R)-2-amino-3,3-difluorocyclohexylamino)-3-(4-(isoxazol-5-yl)phenylamino)pyrazine-2-carboxamide]",10 to 100
10,"NC(=O)c1ccc(Nc2nc(N[C@@H]3CCCC(F)(F)[C@@H]3N)cnc2C(N)=O)cc1 [Example 19, 5-((1R,2R)-2-amino-3,3-difluorocyclohexylamino)-3-(4-carbamoylphenylamino)pyrazine-2-carboxamide]",10 to 100
11,"Cc1cc(Nc2nc(N[C@@H]3CCCC(F)(F)[C@@H]3N)cnc2C(N)=O)sn1 [Example 23, 5-((1R,2R)-2-amino-3,3-difluorocyclohexylamino)-3-(3-methylisothiazol-5-ylamino)pyrazine-2-carboxamide]",10 to 100
12,"COc1ccc(Nc2nc(N[C@@H]3CCCC(F)(F)[C@@H]3N)cnc2C(N)=O)cc1 [Example 24, 5-((1R,2R)-2-amino-3,3-difluorocyclohexylamino)-3-(4-methoxyphenylamino)pyrazine-2-carboxamide]",10 to 100
13,"NC(=O)c1ncc(N[C@@H]2CCCC(F)(F)[C@@H]2N)nc1Nc1ccc2c(c1)CCC(=O)N2 [Example 25, 5-((1R,2R)-2-amino-3,3-difluorocyclohexylamino)-3-(2-oxo-1,2,3,4-tetrahydroquinolin-6-ylamino)pyrazine-2-carboxamide]",1 to 10
14,"NC(=O)c1ncc(N[C@@H]2CCCC(F)(F)[C@@H]2N)nc1Nc1ccc(-c2ccncc2)cc1 [Example 26, 5-((1R,2R)-2-amino-3,3-difluorocyclohexylamino)-3-(4-(pyridin-4-yl)phenylamino)pyrazine-2-carboxamide]",10 to 100
